Measured values taken from paper PMC5723147, “Effective Antimicrobial Activity of Plectasin-Derived Antimicrobial Peptides against Staphylococcus aureus Infection in Mammary Glands” (Frontiers in Microbiology, 2017).
In brackets after ≈: the same amount, converted by molar mass.

Legend:
[1] = test system: S. aureus E48 in mammary glands; assay: Mouse model of S. aureus-induced mastitis; format: in vivo, BALB/c mice
Method: The animal protocols used in this work were approved by Institutional Animal Care and Use Committee of Northwest A&F University. The 6- to 8-week-old specific-pathogen-free BALB/c mice were purchased from the Experimental Animal Center of the Medical College of Xi’an Jiao Tong University. […] The lactating mice were challenged with S. aureus E48 as described earlier ([Schmelcher et al., 2015]). The pentobarbital sodium (1.4 mg/20 g bodyweight) was used for anesthesia of the lactating mice by intraperitoneal injection. The distal end of the teat L4 (on the left) and R4 (on the right) was removed (snipped) by a small cut. These L4 and R4 glands constitute the fourth pair found from head to tail. For all groups except for the snipped only group, glands were injected with approximately 10^4 CFU S. aureus in 50 μL PBS. At 45 min after S. aureus inoculation, the challenged glands were injected with 100 μg AMPs in 20 μL or 20 μL of PBS, depending on the treatment. The mice were euthanized 24 h after the S. aureus inoculation, and mammary glands were aseptically collected and weighed. Five mice (10 mammary glands) were used for each group. Seven mammary glands from each treatment were sampled and homogenized in PBS (100 mg/200 μL). Serial dilution plating on Baird-Parker agar plates was done to determine intramammary S. aureus. A part of the homogenate was centrifuged, and the supernatant was used for tumor necrosis factor alpha (TNF-α) and interleukin 6 (IL-6) assays, using the mouse TNF-α and IL-6 ELISA kits (Shanghai Bangyi Biotechnology). The tissue from three mammary glands from each treatment was fixed with 10% buffered formalin for histopathological analyses (HE staining).

[2] = test system: Staphylococcus aureus E48; assay: Minimum inhibitory concentration (broth microdilution, Mueller-Hinton broth); format: cell-based; settings: 5 × 10^5 CFU/mL, 37°C, 16-20 h, three replicates, read-out: MIC against S. aureus E48
Method: Staphylococcus aureus E48, a clinical mastitis isolate, had been used to induce mouse mastitis model ([Wang et al., 2017]). […] It was used as a positive control in this study and was purchased from Sigma–Aldrich. The AMPs were prepared according to a previously described protocol ([Zhang et al., 2015]). The minimum inhibitory concentrations (MICs) were used to evaluate the antibacterial activities of antimicrobial agents ([Wiegand et al., 2008]). Briefly, S. aureus were grown to the log-phase at 37°C in the Mueller–Hinton broth, and diluted to 5 × 10^5 CFU/mL with the fresh medium. A total of 180 μL of cell suspension and 20 μL of serially twofold diluted peptide were added to each well, and the plates were incubated at 37°C for 16–20 h. The final concentration of antimicrobial agents was prepared with gradients of 64, 32, 16, 8, 4, 2, 1, 0.5, 0.25, 0.125, and 0.0625 μg/mL. Three replicates were examined for each concentration. The MICs refer to the lowest concentration where no growth was visible after 16–20 h of incubation.

[3] = 100 μg intramammary, 24 h post-infection, ELISA, P < 0.05

SMILES: CN(C)[C@@H]1C(O)=C(C(N)=O)C(=O)[C@@]2(O)C(O)=C3C(=O)c4c(O)cccc4[C@@](C)(O)[C@H]3C[C@@H]12 [tetracycline, Tetracycline]
- Reduction of S. aureus numbers in mammary glands compared to PBS control ([1]; 100 μg intramammary 45 min after ~10^4 CFU inoculation, 24 h after inoculation): 1.48 log10 units
- S. aureus-induced inflammatory cell infiltration in mammary tissue (HE staining) ([1]; 100 μg intramammary, 24 h): significantly reduced
- Intramammary IL-6 concentration in comparison with buffer control [1, 3]: significantly reduced
- Intramammary TNF-α concentration in comparison with buffer control [1, 3]: significantly reduced
- MIC [2]: 1 µg/mL (≈ 2.25 µM)
